In general, pIC50 refers to −log10 of the IC50, conventionally taken in molar units. High values mean a small IC50, low ones a large IC50. Usually GI50 stands for the concentration giving 50% growth inhibition.

pIC50: −log10 of the molar value.

For 37 molecules, IC50 and GI50 results are on record in patent US8940739B2, “Compound of a reverse-turn mimetic and a production method and use therefor” (JW Pharmaceutical Corporation, priority 2010, dated 2015).

Data set [1] deals with cDNA-expressed human hepatic CYP3A4 (Homo sapiens (Human), UniProt P08684). The data set can be described thus: Measurement of CYP (IC50 of P450 CYP3A4), BFC substrate. The format is in vitro ADME. As to conditions: 20 minutes. Here is the method:
The compounds of the present invention had lower P450 CYP3A4 inhibitory activity (higher IC50). Lower CYP3A4 inhibitory activity means that the compounds of the present invention cause fewer side-effects from the pharmacological point of view.
This assay was performed in a 200 l volume in 96-well microtiter plates using cDNA-expressed human hepatic CYP3A4 (supersome, BD Gentest™ #456202). As a substrate for CYP3A4, 7-benzyloxy-4-trifluoromethyl-coumarin (BFC) was used. The compounds of Examples 1 to 5 and the substrate BFC were dissolved in 100% acetonitrile. The final volume of acetonitrile of the incubation mixture was less than 1% (volume/volume). A potassium phosphate buffer (pH 7.4, final concentration 0.1M), MgCl2 (final concentration 8.3 mM), EDTA (final concentration 1.67 mM), an inventive compound stock solution, CYP3A4 supersome, and NADPH (final concentration 0.25 mM) were added to each well. The reaction was initiated by adding the substrate (BFC, final concentration 30 µM) at 37. The incubation was performed for 20 minutes and then the reaction was terminated by the addition of 75 μl of acetonitrile: 0.5 M tris-base=4:1 (volume/volume).
Then, a fluorescent signal was measured using a fluorometer. A BFC metabolite, 7-hydroxy-4-trifluoromethyl-coumarin, was measured using an excitation wavelength of 409 nm and an emission wavelength of 530 nm.

For data set [2], the system named is MV-4-11 (human, Acute Myeloid Leukemia cell line) cells. The data set can be described thus: Cell growth inhibition assay, GI50 of MV-4-11. The format is cell-based. The settings on record: Homo sapiens, MV4-11, 72 h, MV-4-11 cells. In a few lines: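 GI50 derived from 490 nm absorbance using CellTiter 96 Aqueous One reagent, with compound-free medium providing the background. Human AML MV-4-11 cells, seeded at 5×10^4 per well in IMDM/10% FBS, incubated 72 h at 37 °C with duplicate serial dilutions of test compound.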

Chain of cDNA-expressed human hepatic CYP3A4 (P08684 whole entry): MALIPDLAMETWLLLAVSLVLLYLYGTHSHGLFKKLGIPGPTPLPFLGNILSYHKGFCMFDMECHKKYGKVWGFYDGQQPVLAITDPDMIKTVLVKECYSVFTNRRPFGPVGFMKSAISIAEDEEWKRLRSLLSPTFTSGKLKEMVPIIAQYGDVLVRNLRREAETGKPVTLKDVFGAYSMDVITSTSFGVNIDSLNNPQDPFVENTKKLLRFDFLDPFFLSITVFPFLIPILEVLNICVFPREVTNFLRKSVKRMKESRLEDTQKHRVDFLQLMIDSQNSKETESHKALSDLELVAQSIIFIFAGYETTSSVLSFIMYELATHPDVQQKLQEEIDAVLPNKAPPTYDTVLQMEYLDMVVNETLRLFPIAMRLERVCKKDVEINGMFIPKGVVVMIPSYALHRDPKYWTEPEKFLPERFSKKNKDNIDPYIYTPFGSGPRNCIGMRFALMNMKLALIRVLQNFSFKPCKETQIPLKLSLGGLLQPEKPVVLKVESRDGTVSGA

For `C=CCN1CC(=O)N2[C@@H](Cc3ccc(O)cc3)C(=O)N(Cc3cccc4c(-c5ccc(C(=O)N6CCSCC6)cc5)cn(C)c34)C[C@@H]2N1C(=O)NCc1ccccc1` [Compound D-5], in data set [1], the pIC50 was 5.75. In data set [2], this molecule came in with a GI50 of 0.0022 µM.
The matching figures for `C=CCN1CC(=O)N2[C@@H](Cc3ccc(O)cc3)C(=O)N(Cc3cccc4c(-c5ccc(C(=O)Nc6ccc(N7CCN(C)CC7)cc6)cc5)cn(C)c34)C[C@@H]2N1C(=O)NCc1ccccc1` [Compound D-11]: 5.15 and 0.0018 µM.
In the same order, the values of `C=CCN1CC(=O)N2[C@@H](Cc3ccc(O)cc3)C(=O)N(Cc3cccc4c(-c5ccc(C(=O)Nc6ccc(N7CCOCC7)nc6)cc5)cn(C)c34)C[C@@H]2N1C(=O)NCc1ccccc1` [Compound D-12] are under 4.60 and 0.0021 µM.
As to `C=CCN1CC(=O)N2[C@@H](Cc3ccc(O)cc3)C(=O)N(Cc3cccc4c(-c5ccc(C(=O)Nc6cccc(C(N)=O)c6)cc5)cn(C)c34)C[C@@H]2N1C(=O)NCc1ccccc1` [Compound D-15], in data set [1], the pIC50 is 4.80. Further, it took 0.0028 µM to inhibit growth in data set [2] by half (GI50).
In the same order, the values of `C=CCN1CC(=O)N2[C@@H](Cc3ccc(O)cc3)C(=O)N(Cc3cccc4c(-c5ccc(C(=O)Nc6cccc(O)c6)cc5)cn(C)c34)C[C@@H]2N1C(=O)NCc1ccccc1` [Compound D-16] are 5.09 and 0.0156 µM.
The matching figures for `C=CCN1CC(=O)N2[C@@H](Cc3ccc(O)cc3)C(=O)N(Cc3cccc4c(-c5ccc(C(=O)Nc6ccccc6)cc5)cn(C)c34)C[C@@H]2N1C(=O)NCc1ccccc1` [Compound D-17]: 5.12 and 0.0069 µM.
In data set [1], `C=CCN1CC(=O)N2[C@@H](Cc3ccc(O)cc3)C(=O)N(Cc3cccc4c(-c5ccc(C(=O)Nc6ccc(N)cc6)cc5)cn(C)c34)C[C@@H]2N1C(=O)NCc1ccccc1` [Compound D-18] had a pIC50 of 5.62. The same molecule registered a GI50 in data set [2] of 0.0012 µM.
In data set [1], `C=CCN1CC(=O)N2[C@@H](Cc3ccc(O)cc3)C(=O)N(Cc3cccc4c(-c5ccc(C(=O)Nc6cccc(OC)c6)cc5)cn(C)c34)C[C@@H]2N1C(=O)NCc1ccccc1` [Compound D-21] had a negative-log IC50 (pIC50) of 5.19. In data set [2], this molecule came in with a GI50 of 0.0069 µM.
In the same order, the values of `C=CCN1CC(=O)N2[C@@H](Cc3ccc(O)cc3)C(=O)N(Cc3cccc4c(-c5ccc(C(=O)Nc6ccc(OC)cc6)cc5)cn(C)c34)C[C@@H]2N1C(=O)NCc1ccccc1` [Compound D-22] are 4.71 and 0.0042 µM.
In the same order, the values of `C=CCN1CC(=O)N2[C@@H](Cc3ccc(O)cc3)C(=O)N(Cc3cccc4c(-c5ccc(C(=O)Nc6cccc(OC(C)C)c6)cc5)cn(C)c34)C[C@@H]2N1C(=O)NCc1ccccc1` [Compound D-26] are 4.86 and 0.019 µM.
In the same order, the values of `C=CCN1CC(=O)N2[C@@H](Cc3ccc(O)cc3)C(=O)N(Cc3cccc4c(-c5ccc(C(=O)NNC(C)(C)C)cc5)cn(C)c34)C[C@@H]2N1C(=O)NCc1ccccc1` [Compound D-34] are 5.47 and 0.0012 µM.
`C=CCN1CC(=O)N2[C@@H](Cc3ccc(O)cc3)C(=O)N(Cc3cccc4c(-c5ccc(C(=O)NN6CCN(c7ccccn7)CC6)cc5)cn(C)c34)C[C@@H]2N1C(=O)NCc1ccccc1` [Compound D-44]: the negative-log IC50 (pIC50) in data set [1] is under 4.60. This molecule had a GI50 in data set [2] of 0.0195 µM.
In the same order, the values of `C=CCN1CC(=O)N2[C@@H](Cc3ccc(O)cc3)C(=O)N(Cc3cccc4c(-c5ccc(NC(=O)c6ccccc6)cc5)cn(C)c34)C[C@@H]2N1C(=O)NCc1ccccc1` [Compound D-48] are under 4.60 and 0.0019 µM.
The matching figures for `C=CCN1CC(=O)N2[C@@H](Cc3ccc(O)cc3)C(=O)N(Cc3cccc4c(-c5ccc(NC(=O)c6ccc(OC)cc6)cc5)cn(C)c34)C[C@@H]2N1C(=O)NCc1ccccc1` [Compound D-49]: under 4.60 and 0.01 µM.
The molecule `C=CCN1CC(=O)N2[C@@H](Cc3ccc(O)cc3)C(=O)N(Cc3cccc4c(C(=O)NCCN5CCOCC5)cn(C)c34)C[C@@H]2N1C(=O)NCc1ccccc1` [Compound F-25] gave a pIC50 in data set [1] of 5.07.
The same measure, in the same setting: as for `C=CCN1CC(=O)N2[C@@H](Cc3ccc(O)cc3)C(=O)N(Cc3cccc4c(C(=O)NCCN5CCN(C)CC5)cn(C)c34)C[C@@H]2N1C(=O)NCc1ccccc1` [Compound F-27], the figure is 4.94; as for `C=CCN1CC(=O)N2[C@@H](Cc3ccc(O)cc3)C(=O)N(Cc3cccc4c(C(=O)N(C)CCN5CCN(C)CC5)cn(C)c34)C[C@@H]2N1C(=O)NCc1ccccc1` [Compound F-28], 5.11.
On the same count and under the same terms, as for `C=CCN1CC(=O)N2[C@@H](Cc3ccc(O)cc3)C(=O)N(Cc3cccc4c(C(=O)NCCCN5CCOCC5)cn(C)c34)C[C@@H]2N1C(=O)NCc1ccccc1` [Compound F-29], the figure is 5.96; as for `C=CCN1CC(=O)N2[C@@H](Cc3ccc(O)cc3)C(=O)N(Cc3cccc4c(C(=O)NCCCN5CCN(C)CC5)cn(C)c34)C[C@@H]2N1C(=O)NCc1ccccc1` [Compound F-30], 5.60; as for `C=CCN1CC(=O)N2[C@@H](Cc3ccc(O)cc3)C(=O)N(Cc3cccc4c(C(=O)N(C)CC(=O)N5CCN(C)CC5)cn(C)c34)C[C@@H]2N1C(=O)NCc1ccccc1` [Compound F-32], 5.30.
Same read-out and setting: the same measure for `C=CCN1CC(=O)N2[C@@H](Cc3ccc(O)cc3)C(=O)N(Cc3cccc4c(C(=O)N(C)CCn5ccnc5C)cn(C)c34)C[C@@H]2N1C(=O)NCc1ccccc1` [Compound F-36]: 5.61.
With `C=CCN1CC(=O)N2[C@@H](Cc3ccc(O)cc3)C(=O)N(Cc3cccc4c(C(=O)N(C)NC)cn(C)c34)C[C@@H]2N1C(=O)NCc1ccccc1` [Compound F-53], in data set [1], the pIC50 was 5.63.
Same read-out and setting: the same measure for `C=CCN1CC(=O)N2[C@@H](Cc3ccc(O)cc3)C(=O)N(Cc3cccc4c(C(=O)NNCC(=O)OCC)cn(C)c34)C[C@@H]2N1C(=O)NCc1ccccc1` [Compound F-55]: 5.21; for `C=CCN1CC(=O)N2[C@@H](Cc3ccc(O)cc3)C(=O)N(Cc3cccc4c(C(=O)NN5CCCC5)cn(C)c34)C[C@@H]2N1C(=O)NCc1ccccc1` [Compound F-56]: 4.76.
On the same count and under the same terms, the same measure for `C=CCN1CC(=O)N2[C@@H](Cc3ccc(O)cc3)C(=O)N(Cc3cccc4c(C(=O)NN5CCCCC5)cn(C)c34)C[C@@H]2N1C(=O)NCc1ccccc1` [Compound F-57]: 5.32.
Same read-out and setting: the same measure for `C=CCN1CC(=O)N2[C@@H](Cc3ccc(O)cc3)C(=O)N(Cc3cccc4c(C(=O)NN5CCOCC5)cn(C)c34)C[C@@H]2N1C(=O)NCc1ccccc1` [Compound F-58]: 4.65; for `C=CCN1CC(=O)N2[C@@H](Cc3ccc(O)cc3)C(=O)N(Cc3cccc4c(C(=O)NN5CCN(C6CCCC6)CC5)cn(C)c34)C[C@@H]2N1C(=O)NCc1ccccc1` [Compound F-59]: 5.62; for `C=CCN1CC(=O)N2[C@@H](Cc3ccc(O)cc3)C(=O)N(Cc3cccc4c(C(=O)NNc5ccccc5)cn(C)c34)C[C@@H]2N1C(=O)NCc1ccccc1` [Compound F-60]: 5.17.
The molecule `C=CCN1CC(=O)N2[C@@H](Cc3ccc(O)cc3)C(=O)N(Cc3cccc4c(C(=O)NC5CCN(CCCO)CC5)cn(C)c34)C[C@@H]2N1C(=O)NCc1ccccc1` [Compound F-63] showed a pIC50 in data set [1] of 5.01.
`C=CCN1CC(=O)N2[C@@H](Cc3ccc(O)cc3)C(=O)N(Cc3cccc4c(C(=O)NC5CCN(C(C)=O)CC5)cn(C)c34)C[C@@H]2N1C(=O)NCc1ccccc1` [Compound F-64] gave a pIC50 in data set [1] of 5.29.
The same measure, in the same setting: as for `C=CCN1CC(=O)N2[C@@H](Cc3ccc(O)cc3)C(=O)N(Cc3cccc4c(C(=O)NC5CCN(C(=O)CCO)CC5)cn(C)c34)C[C@@H]2N1C(=O)NCc1ccccc1` [Compound F-65], the figure is 5.16; as for `C=CCN1CC(=O)N2[C@@H](Cc3ccc(O)cc3)C(=O)N(Cc3cccc4c(C(=O)Nc5ccc(F)nc5)cn(C)c34)C[C@@H]2N1C(=O)NCc1ccccc1` [Compound G-1], 5.53; as for `C=CCN1CC(=O)N2C(CN(Cc3cccc4c(C(=O)Nc5ccc(NCC(O)CO)nc5)cn(C)c34)C(=O)[C@@H]2Cc2ccc(O)cc2)N1C(=O)NCc1ccccc1` (stereo partly drawn) [Compound G-21], 5.59.
Same read-out and setting: as for `C=CCN1CC(=O)N2C(CN(Cc3cccc4c(C(=O)Nc5ccc(NCCN(CC)CC)nc5)cn(C)c34)C(=O)[C@@H]2Cc2ccc(O)cc2)N1C(=O)NCc1ccccc1` (stereo partly drawn) [Compound G-24], the figure is 5.34; as for `C=CCN1CC(=O)N2C(Cc3ccc(O)cc3)C(=O)N(Cc3cccc4c(C(=O)Nc5ccc(NCCN(C(C)C)C(C)C)nc5)cn(C)c34)CC2N1C(=O)NCc1ccccc1` (stereo not drawn) [Compound G-25], 5.39; as for `C=CCN1CC(=O)N2C(Cc3ccc(O)cc3)C(=O)N(Cc3cccc4c(C(=O)Nc5ccc(N(CCN(CC)CC)CCN(CC)CC)nc5)cn(C)c34)CC2N1C(=O)NCc1ccccc1` (stereo not drawn) [Compound G-26], 5.27.
Still for that read-out and setting: the same measure for `C=CCN1CC(=O)N2C(CN(Cc3cccc4c(C(=O)Nc5ccc(NCCN6CCC(O)CC6)nc5)cn(C)c34)C(=O)[C@@H]2Cc2ccc(O)cc2)N1C(=O)NCc1ccccc1` (stereo partly drawn) [Compound G-29]: 5.24.
